Read-outs that look alike come from different tables or passages of the source.
Tests used:
[1] = Comparative effectiveness stated in the description (no method given)
young Wistar rats [2] = experiment: T-maze test of waiting ability (ADHD model, impulsivity); format: in vivo, rat; conditions: for waiting ability in the T-maze test compared to the control: administered before the test, mazindol 1, 3, 10 mg/kg intraperitoneally, lauflumide 64, 128 mg/kg orally, D-lauflumide 64, 128, 256 mg/kg orally; for improving waiting ability, effectiveness versus methylphenidate and d-amphetamine / improving waiting ability, effectiveness versus modafinil: T-maze; for improving waiting ability, effectiveness versus methylphenidate and d-amphetamine: methylphenidate 3 mg/kg, d-amphetamine 1 mg/kg intraperitoneally; for improving waiting ability, effectiveness versus modafinil: modafinil 64 and 128 mg/kg orally
From the text: The test of waiting ability in a T-maze consists in offering a rat a choice between a quick and immediate food reward and a large but delayed reward. In adult Wistar rats, numerous antidepressants such as serotonin or noradrenalin reuptake inhibitors increase the number of choices for the large but delayed reward, indicating an improvement in waiting ability, i.e., a decrease in impulsivity.
The goal of the present study is to examine whether lauflumide in the form of its racemic mixture or its D form ((+) enantiomer), administered in 3 doses before the test, improves waiting ability in young Wistar rats subjected to the T-maze test. An improvement in waiting ability by this compound would indicate that this compound reduces impulsivity and, consequently, could be useful in the treatment of ADHD. Methylphenidate and d-amphetamine are used as a reference product in the same experiment.
Male Wistar AF rats (Centre d′Elevage Rene Janvier, France) are used, aged 22 days at the beginning of the experiment and between 30 and 42 days at the time the molecules are administered.
The experiments were carried out in two identical T-mazes (FIG. 1) made of opaque gray plastic tubes (inner diameter: 7.5 cm), consisting of a starting alley (30 cm long), a transparent plastic box, (10 cm wide, 10 cm deep and 10 cm high) and two arms (35 cm long) each leading to a rectangular black plastic box (18 cm wide, 30 cm deep, 10 cm high). The removable, gray plastic guillotine doors can be inserted in vertical slots located at the entrance to the starting alley and at the end of each arm. One of the goal boxes (left or right, depending on the rat) is continuously provided with a large reward, the other with a small reward. The large and small rewards consist of 5 and 1 pellets, respectively (20 mg, Technical & Scientific Equipment GMBH, Germany). The pellets are placed in a translucent cup before each test.
The T-maze test is a validated test which makes it possible, by extrapolation to man, to verify the effectiveness of pharmacological agents effective in ADHD.
1st phase: habituation. The animals are first subjected to 2 to 6 habituation sessions of 5 minutes each. The rat is gently placed in the starting alley, which is then closed off by a guillotine door inserted in the slot (reference c0 in FIG. 1). The animal is allowed to freely explore the device and to eat the rewards placed in the cups.
2nd phase: pre-training. A door is placed in slot c2 near each goal box and then the rat is placed in the starting alley. When it enters one of the two arms, a door is inserted behind it in slot c1 near the choice point and the door placed in slot c2 is removed. Once the animal enters the goal box, the door is replaced in slot c2. The rat is removed from the goal box as soon as it eats the pellets. The animal is then returned to its cage for 2 to 3 minutes. One to three times per day, each rat is subjected to five test sessions. In four to 12 sessions, the rat chooses the arm leading to the large reward in more than 80% of the tests. The training phase then begins.
3rd phase: training. During training the rats 1 to 4 times/day undergo sessions of 5 tests during which a delay is introduced before access to the large reward is granted. After a door is placed in slot c2 near each goal box, the rat is placed in the starting alley. When it enters one of the two arms, a second door is inserted behind it in slot c1 near the choice point, so that the rat choosing the training arm with the large reward can be held in this arm for 30 seconds—the waiting period—before having access to the reinforcement. If not, if the animal chooses the arm leading to the small reward, the door placed in slot c2 is immediately removed, allowing the animal to enter the goal box. The testing of the drugs begins when the animal chooses the large reward delayed by 30 seconds in 2 tests in 5 (or fewer) during two consecutive sessions and in 1 test in 5 (or fewer) in the following session. […]

young Wistar rats [3] = conditions: cited from earlier work; for waiting ability in the T-maze test: young rats

## NC(=O)C[S+]([O-])C(c1ccc(F)cc1)c1ccc(F)cc1 (racemic) [Lauflumide]
[1]
  effectiveness relative to adrafinil: 20 times
  effectiveness relative to modafinil: 4 times
Young Wistar rats [2]
  waiting ability in the T-maze test compared to the control: improve waiting ability

## CC(N)Cc1ccccc1 (racemic) [amphetamine, D,L-amphetamine]
Young Wistar rats [3]
  waiting ability in the T-maze test: improved waiting ability

## NC(=O)C[S@@+]([O-])C(c1ccc(F)cc1)c1ccc(F)cc1 [D-Lauflumide]
[1]
  effectiveness versus the racemic mixture of lauflumide: more effective than the racemic mixture of lauflumide
Young Wistar rats [2]
  improving waiting ability, effectiveness versus methylphenidate and d-amphetamine: at least as effective as methylphenidate and d-amphetamine
  improving waiting ability, effectiveness versus modafinil: more effective than modafinil
  waiting ability in the T-maze test compared to the control: improve waiting ability

## OC1(c2ccc(Cl)cc2)c2ccccc2C2=NCCN21 (centres unmarked) [Mazindol, mazindol]
Young Wistar rats [2]
  improving waiting ability, effectiveness versus methylphenidate and d-amphetamine: at least as effective as methylphenidate and d-amphetamine
  improving waiting ability, effectiveness versus modafinil: more effective than modafinil
  waiting ability in the T-maze test compared to the control: improve waiting ability

## CNCC[C@@H](Oc1ccccc1C)c1ccccc1 [atomoxetine]
Young Wistar rats [3]
  waiting ability in the T-maze test: improved waiting ability

## Clc1cccc(Cl)c1N=C1NCCN1 [clonidine]
Young Wistar rats [3]
  waiting ability in the T-maze test: improved waiting ability

## CNCCCN1c2ccccc2CCc2ccccc21 [desipramine]
Young Wistar rats [3]
  waiting ability in the T-maze test: improved waiting ability

## COC(=O)C(c1ccccc1)C1CCCCN1 (centres unmarked) [methylphenidate]
Young Wistar rats [3]; adult Wistar rats, spontaneously hypertensive rats (SHR) and Wistar Kyoto (WKY) rats
  number of choices for the large but delayed reward: not
Young Wistar rats [3]; young Wistar rats
  number of choices for the large but delayed reward: increases the number of choices for the large but delayed reward
Young Wistar rats [3]
  waiting ability in the T-maze test: improved waiting ability
